US20250163088A1, “HALF-SANDWICH TRANSITION METAL COMPLEXES AND USES THEREOF” (DEBRECENI EGYETEM, priority 2021, published 2025)
Where two headings read alike, the source gives them in different places.

Experiments:
[1] = system: A2780 human ovarian carcinoma cells; assay: SRB proliferation assay (48 h) on A2780 cells; assay type: cell-based; details: for cytostatic properties in the screen (long-term SRB and short-term MTT assays): A2780 cells, 100 μM-0.0017 μM
Description: The compounds were tested in an assay aiming to assess short term toxicity (methylthiazolyldiphenyl-tetrazolium bromide (MTT) reduction assay, 4 hours) and a long term cytostasis or cytotoxicity (sulphorhodamine B (SRB) proliferation assay, 48 hours) on A2780 human ovarian carcinoma cells.
(§1) SRB accumulation assay assesses protein content in a sample and was used to assess cell proliferation. SRB accumulation assay was performed similarly to (Fodor et al., 2016) as follows. Cells were seeded in 96-well plates. The next day cells were treated with the compounds for 48 hours in the concentrations indicated in a cell incubator. At the end of treatment cells were fixed with 10% trichloroacetic acid (TCA). Fixed cells were stained with SRB (0.4 m/V % dissolved in 1% acetic acid) for 60 minutes. Fixed cells were washed in 1% acetic acid 3 times; acetic acid was removed and cells were left to dry. Protein-bound SRB was released by adding 100 μl 10 mM Tris base. Plates were measured in a plate photometer (Thermo Scientific Multiscan GO spectrophotometer, Waltham, MA, USA) at 540 nm. On each plate wells were designed to contain untreated cells. In calculations the readings for these wells was considered as 1 and all readings were expressed relative to these values.
Statistical analysis was performed using 8.0.1 version of Graphpad Prism. Values were tested for normal distribution using the D'Agostino and Pearson normality test. When necessary, values were log normalized or were normalized using the Box-Cox normalization method (Box and Cox, 1964), as indicated in the figure captions.

[2] = system: human primary skin fibroblasts; assay: SRB proliferation assay (48 h) on primary fibroblasts; assay type: cell-based; details: for Fibroblast Hill slope / IC50: SRB 48 h, N/A = cannot be calculated/no effect; for IC50: read-out: Fibroblast IC50
Description: (§2) […]. All compounds were tested on two ovarian cancer cell lines (A2780 and ID8) and on human primary skin fibroblasts (non-transformed, primary cells) in MTT and SRB assays. MTT assays were performed 4 hours post-treatment and indicated rapid toxicity of the compounds, while SRB assays were performed 2 days post-treatment and represent long term cytostasis or toxicity.
as §1
(§3) Statistical analysis was performed using 8.0.1 version of Graphpad Prism. Values were tested for normal distribution using the D'Agostino and Pearson normality test. When necessary, values were log normalized or were normalized using the Box-Cox normalization method (Box and Cox, 1964), as indicated in the figure captions. Nonlinear regression was performed using the built-in “[Inhibitor] vs. response—Variable slope (four parameters), least square fit” utility of Graphpad that yielded IC50 and Hill slope values.

[3] = Solubility / precipitation in the test medium; assay type: physicochemical
ID8 ovarian cancer cells = assay: SRB proliferation assay (48 h) on ID8 cells; assay type: cell-based; details: SRB 48 h; for IC50: N/A = cannot be calculated/no effect
Description: as §2, §1, §3

[4] = system: cisplatin-resistant A2780 cell line; assay: SRB proliferation assay (48 h) on cisplatin-resistant A2780 cells; assay type: cell-based, human
Description: In this experiment, 6×10^3 cisplatin-resistant A2780 cells were plated to 96 well plates. Cells were treated with the compounds in the concentrations indicated for either 4 hours for an MTT assay or for 48 hours for an SRB assay. Data is represented as average ±SD, from three biological replicates; individual assays were performed in duplicates. Values were normalized for vehicle treated cells, absorbance for vehicle treated cells equals to 1. Each compound was assessed individually. Normality was assessed using the Shapiro-Wilk test. […] Statistical significance was assessed using One-way ANOVA test comparing all points to the smallest concentration. Nonlinear regression was performed on the results of the SRB assay datasets.
Cisplatin resistant cells underwent selection (1 μM cisplatin) once a week for 3 days before plating for any assay.
as §1

[5] = SRB 48 h, nonlinear regression, N/A = cannot be calculated/no effect, read-out: A2780 IC50

2-(2′,3′,4′,6′-Tetra-O-benzoyl-β-D-glucopyranosyl)-5-(pyridin-2-yl)-1,3,4-oxadiazole [Complex L-4]
A2780 SRB Max. (maximal inhibition) ([1]; 48 h): 26.9%

O=C(OC[C@H]1O[C@@H](n2cc(-c3ccccn3)nn2)[C@H](OC(=O)c2ccccc2)[C@@H](OC(=O)c2ccccc2)[C@@H]1OC(=O)c1ccccc1)c1ccccc1 [Complex L-2a, 1-(2′,3′,4′,6′-Tetra-O-benzoyl-β-D-glucopyranosyl)-4-(pyridin-2-yl)-1,2,3-triazole]
cytostatic effect in long-term SRB assays on A2780 and ID8 cells, in words ([1]; 48 h): none of the corresponding ligands (L-2a, L-4, L-6, L-8) had cytostatic properties | cytostatic properties in the screen (long-term SRB and short-term MTT assays) [1]: no biological activity | effect on primary human fibroblasts (SRB), in words [2]: no effect

O=C(OC[C@H]1O[C@@H](n2cc(-c3ccc4ccccc4n3)nn2)[C@H](OC(=O)c2ccccc2)[C@@H](OC(=O)c2ccccc2)[C@@H]1OC(=O)c1ccccc1)c1ccccc1 [Complex L-2b, 1-(2′,3′,4′,6′-Tetra-O-benzoyl-β-D-glucopyranosyl)-4-(quinolin-2-yl)-1,2,3-triazole]
cytostatic effect in long-term SRB assays on A2780 and ID8 cells, in words ([1]; 48 h): only little cytostatic activity

O=C(OC[C@H]1O[C@@H](c2nnc(-c3ccccn3)o2)[C@H](OC(=O)c2ccccc2)[C@@H](OC(=O)c2ccccc2)[C@@H]1OC(=O)c1ccccc1)c1ccccc1 [Complex L-4, 2-(2′,3′,4′,6′-Tetra-O-benzoyl-β-D-glucopyranosyl)-5-(pyridin-2-yl)-1,3,4-oxadiazole]
cytostatic effect in long-term SRB assays on A2780 and ID8 cells, in words ([1]; 48 h): none of the corresponding ligands (L-2a, L-4, L-6, L-8) had cytostatic properties | cytostatic properties in the screen (long-term SRB and short-term MTT assays) [1]: no biological activity | effect on primary human fibroblasts (SRB), in words [2]: no effect

CC(=O)OC[C@H]1O[C@@H](c2nnc(-c3ccccn3)o2)[C@H](OC(C)=O)[C@@H](OC(C)=O)[C@@H]1OC(C)=O [Complex L-5, 2-(2′,3′,4′,6′-Tetra-O-acetyl-β-D-glucopyranosyl)-5-(pyridin-2-yl)-1,3,4-oxadiazole]
A2780 SRB Max. (maximal inhibition) ([1]; 48 h): 28.5%

O=C(O[C@@H]1[C@@H](OC(=O)c2ccccc2)[C@H](c2nnc(-c3ccccn3)o2)OC[C@H]1OC(=O)c1ccccc1)c1ccccc1 [Complex L-6, 2-(2′,3′,4′-Tri-O-benzoyl-β-D-xylopyranosyl)-5-(pyridin-2-yl)-1,3,4-oxadiazole]
cytostatic effect in long-term SRB assays on A2780 and ID8 cells, in words ([1]; 48 h): none of the corresponding ligands (L-2a, L-4, L-6, L-8) had cytostatic properties | cytostatic properties in the screen (long-term SRB and short-term MTT assays) [1]: no biological activity | effect on primary human fibroblasts (SRB), in words [2]: no effect | solubility of the free ligand for testing [3]: insoluble

O=C(OC[C@H]1O[C@@H](c2nnc(-c3ccccn3)o2)[C@H](OC(=O)c2ccccc2)[C@@H](OC(=O)c2ccccc2)[C@H]1OC(=O)c1ccccc1)c1ccccc1 [Complex L-8, 2-(2′,3′,4′,6′-Tetra-O-benzoyl-β-D-galactopyranosyl)-5-(pyridin-2-yl)-1,3,4-oxadiazole]
cytostatic effect in long-term SRB assays on A2780 and ID8 cells, in words ([1]; 48 h): none of the corresponding ligands (L-2a, L-4, L-6, L-8) had cytostatic properties | cytostatic properties in the screen (long-term SRB and short-term MTT assays) [1]: no biological activity | effect on primary human fibroblasts (SRB), in words [2]: no effect

c1ccc(-n2cc(-c3ccccn3)nn2)cc1 [Complex L-13, 1-phenyl-4-(pyridine-2-yl)-1,2,3-triazole]
cytostatic activity on A2780 cells in SRB assays, in words ([1]; 48 h): None of the free ligands, L-13 or L-14 had cytostatic activity

c1ccc(-c2nnc(-c3ccccn3)o2)cc1 [Complex L-14, 2-phenyl-5-(pyridine-2-yl)-1,3,4-oxadiazole]
cytostatic activity on A2780 cells in SRB assays, in words ([1]; 48 h): None of the free ligands, L-13 or L-14 had cytostatic activity

CCCCCCCC(=O)OC[C@H]1O[C@@H](n2cc(-c3ccccn3)nn2)[C@H](OC(=O)CCCCCCC)[C@@H](OC(=O)CCCCCCC)[C@@H]1OC(=O)CCCCCCC [L-C7, 1-(2′,3′,4′,6′-Tetra-O-octanoyl-β-D-glucopyranosyl)-4-(pyridin-2-yl)-1,2,3-triazole]
solubility of the free ligand for testing [3]: insoluble

CNCc1ccc(-c2[nH]c3cc(F)cc4c3c2CCNC4=O)cc1 [Rucaparib, rucaparib]
cell proliferation, rucaparib alone ([1]; 3 μM, SRB 48 h): reduced cell proliferation

[NH2][Pt]1([NH2])[O]C(=O)C2(CCC2)C(=O)[O]1 [carboplatin]
effect on primary human fibroblasts (SRB), in words ([2]; 48 h): no effect

N.N.[Cl][Pt][Cl] [cisplatin]
A2780 SRB Hill ([1]; 48 h): 1.20 | IC50 ([1]; 48 h, read-out: A2780 SRB IC50): 1.21 µM | A2780 Hill slope ([1]; SRB 48 h, nonlinear regression): 1.20 | IC50 [1, 5]: 1.21 µM | IC50 ([1]; SRB assay, 48 h, read-out: IC50 value on (cisplatin-sensitive) A2780 cells): 1.21 µM | ID8 Hill slope (ID8 ovarian cancer cells): 0.99 | IC50 (ID8 ovarian cancer cells): 10.8 µM | Fibroblast Hill slope [2]: 1.53 | IC50 [2]: 11.9 µM | cisplatin resistant A2780 SRB Max. (maximal inhibition) ([4]; 48 h): 100% | fold change of IC50, cisplatin resistant vs. cisplatin sensitive A2780 ([4]; SRB assay): 13.6 fold | IC50 ([4]; SRB assay, 48 h): 16.5 µM

O=C1[O][Pt]2([NH][C@@H]3CCCC[C@H]3[NH]2)[O]C1=O [oxaliplatin]
A2780 Hill slope ([1]; SRB 48 h, nonlinear regression): 1.27 | IC50 [1, 5]: 0.12 µM | ID8 Hill slope (ID8 ovarian cancer cells): 1.58 | IC50 (ID8 ovarian cancer cells): 4.59 µM | effect on primary human fibroblasts (SRB), in words ([2]; 48 h): no effect | Fibroblast Hill slope [2]: 0.37 | IC50 [2]: 0.83 µM
